Reference: patent US20230293539A1, “MLL1-WDR5 PROTEIN-PROTEIN INTERACTION INHIBITOR COMPOUNDS AND USES THEREOF” (HUYABIO International, LLC, priority 2022, published 2023)

What was measured:
MV 411 cells = assay: Cell Viability Assay (CellTiter-Glo); format: cell-based; settings: Homo sapiens, MV4-11, 72 hours, read-out: IC50 (anti-proliferative activity against leukemia cells)
Protocol: Cell lines and maintenance: All cell lines (MV 411) used for in vitro and in vivo studies were supplied as part of Wuxi AppTech cell bank. Cell lines were maintained in a medium supplemented with 10% heat inactivated fetal bovine serum at 37° C., in an atmosphere of 5% CO2, in air. The tumor cells were routinely subcultured twice weekly. The cells growing in an exponential growth phase were used for the in vitro cell potency and in vivo efficacy studies.
EXAMPLE 1: Cell Viability Assay: For cell cytotoxicity assays, 2000 cells/well were plated in 384-well plates. Twenty four hours after plating, cells were treated with inhibitors at the indicated compound concentrations. On Day 3 (72 hours), cells were lysed with CellTiter-Glo® Luminescent Cell Viability Assay reagent (Promega) and luminescence was read using the EnVision Multi-plate reader. To calculate IC50, a dose-response curve is generated using a nonlinear regression model with a sigmoidal dose response. The formula of surviving rate is shown below. IC50 values were automatically generated by GraphPad Prism 8.0. See FIG. 1A and FIG. 1B and Tables 3 and 4.

[1] = Compound formulation stability assay; format: physicochemical; settings: 10 mg/mL in 10% DMSO/10% solutol HS 15/80% water, 2-8° C.
Protocol: Compound formulation stability assay: Test articles were formulated in 10% DMSO/10% solutol HS 15/80% water and stored at 4° C. Formulated compounds were analyzed by a HPLC-UV method for actual concentrations and % remaining on Day 1, 4 and 7 after formulation to determine the stability of the formulated test article. The HPLC system was equipped with Shimadzu LC-20 high-performance liquid chromatograph, SIL-20AC auto sampler, LC-20AB pump and SPD-M20A detector. A Waters XBridge C18 (4.6*100 mm) column was applied for the separation. […]

Liver S9 stability assay [2] = format: in vitro ADME, rat
Protocol: (§1) Liver S9 stability assay: Test compounds (1 μM) and positive control were incubated with 5 mM GSH and liver S9 (1 mg protein/ml) from multiple species (including human, monkey, dog, rat and mouse) at 37° C. at 0, 10, 30, and 60 minutes in duplicate. After adding the stop solution, 100 μL of supernatant were analyzed by LC-MS/MS. The % remaining of test compound, T1/2 (min), and CLint (μL/min/mg) were calculated and were reported.

Liver S9 stability assay [3] = format: in vitro ADME, mouse
Protocol: as §1

[4] = WBS (whole blood stability) assay; format: in vitro ADME; settings: for % Remaining after 60 min incubation: 2 μM, 37° C.
Protocol: WBS (whole blood stability) assay: The blood samples were collected freshly from multiple species including human, monkey, dog, rat and mouse. 2 μM of test compound and positive control were incubated with the whole blood at 37° C. at 0, 10, 30, 60, and 120 minutes in duplicate. After adding the stop solution, 200 μL of supernatant were analyzed by LC-MS/MS. The % remaining of test compound and T1/2 (min) were calculated and reported.

Liver S9 stability assay [5] = format: in vitro ADME, human
Protocol: as §1

Dog PK (oral) = format: in vivo, Beagle dogs; settings: for Cmax / AUC(0-t) / half-life: Beagle, plasma
Protocol: Dog PK: Fasted or fed non-naïve Beagle dogs (Marshall Bioresources, Beijing, China) were administered a single intravenous bolus or oral gavage administration of test compounds at respective doses. Blood samples for plasma isolation were collected from a peripheral vessel, from restrained, non-sedated animals at the respective sampling time points. The quantification of compound concentrations in dog plasma was quantified using LC-MS/MS method. Plasma concentration versus time data was analyzed by non-compartmental mode approaches using the WinNonlin software program (version 6.3 or above, Pharsight). Pharmacokinetic parameters, including C0, CL, Vdss, Cmax, Tmax T1/2, AUC0-last, AUC0-inf, MRT0-last, MRT0-inf, bioavailability (%) for IV and PO groups were calculated. See FIGS. 9A, […], 9C and FIGS. 10A, 10B, 10C, and 10D.

Mouse PK (oral) = format: in vivo, C57/B16 mice; settings: for Cmax: plasma; for AUC(0-t) / half-life: C57/B16, plasma
Protocol: Mouse PK: Animals were dosed with a single intravenous bolus or oral gavage administration in naïve C57/B16 mice (Beijing Vital River Laboratory Animal Co., LTD). Blood samples were collected at the respective sampling time points. The quantification of compound concentrations in mouse or rat plasma was quantified using LC-MS/MS method. Plasma concentration versus time data was analyzed by non-compartmental mode approaches using the WinNonlin software program (version 6.3 or above, Pharsight). Pharmacokinetic parameters, including C0 (initial concentration after drug administration), […], Vdss (volume of distribution), Cmax (maximum peak concentration of the drug), Tmax (time required to reach Cmax) T1/2 (time required for drug concentration to decrease by 50% after administration), AUC0-last (area under the concentration-time curve from dosing time t=0 to the time of the last measured concentration), AUC0-inf (total drug exposure across time), MRT0-last (mean residence time from dosing time t=0 to the time of the last measured concentration), MRT0-inf f (mean residence time of total drug exposure), bioavailability (%) (the percentage (or the fraction F) of an administered drug dose that reaches the systemic circulation) for IV and PO groups were calculated. See Table 7 and FIGS. 6A, 6B, 6C and 6D.

Liver S9 stability assay [6] = format: in vitro ADME, dog
Protocol: as §1

## C[C@@H]1CN(c2ncc(-c3cc(Nc4ncnc(Cl)c4N)c(N4CCN(C)[C@@H](C)C4)cc3F)cn2)C[C@H](C)O1 [DDO-2213_023, 6-chloro-N4-(5-(2-((2S,6R)-2,6-dimethylmorpholino)pyrimidin-5-yl)-2-((S)-3,4-dimethylpiperazin-1-yl)-4-fluorophenyl)pyrimidine-4,5-diamine]
MV 411 cells
  IC50: 4.06 µM
[1]; Day 0
  Accuracy % (Day 0): 89.9%
  Formulation Appearance (Day 0): clear solution
  Remaining % (Day 0): 100%
[1]; Day 1
  Accuracy % (Day 1): 81.3%
  Formulation Appearance (Day 1): clear solution
  Remaining % (Day 1): 90.4%
[1]; Day 4
  Accuracy % (Day 4): 92.2%
  Formulation Appearance (Day 4): clear solution
  Remaining % (Day 4): 100%
[1]; Day 7
  Accuracy % (Day 7): 91.5%
  Formulation Appearance (Day 7): clear solution
  Remaining % (Day 7): 99.1%
Liver S9 stability assay [2]; Rat liver S9
  half-life at 1 μM: > 2.42 h
  microsomal CLint at 1 μM: < 4.8 µL/min/mg
Liver S9 stability assay [2]; Rat liver S9, 1 μM, 5 mM GSH, 37° C.
  % Remaining after 60 min incubation: 101%
Liver S9 stability assay [3]; Mouse liver S9
  half-life at 1 μM: 2.1 h
  microsomal CLint at 1 μM: 5.5 µL/min/mg
Liver S9 stability assay [3]; Mouse liver S9, 1 μM, 5 mM GSH, 37° C.
  % Remaining after 60 min incubation: 71.5%
[4]; Dog whole blood
  half-life at 2 μM: > 2.41 h
  % Remaining after 60 min incubation: 97.3%
[4]; Human whole blood
  half-life at 2 μM: 8.75 h
  % Remaining after 60 min incubation: 103%
[4]; Mouse whole blood
  half-life at 2 μM: > 2.41 h
  % Remaining after 60 min incubation: 103%
[4]; Rat whole blood
  half-life at 2 μM: > 2.41 h
  % Remaining after 60 min incubation: 103%
Liver S9 stability assay [5]; Human liver S9
  half-life at 1 μM: > 2.42 h
  microsomal CLint at 1 μM: < 4.8 µL/min/mg
Liver S9 stability assay [5]; Human liver S9, 1 μM, 5 mM GSH, 37° C.
  % Remaining after 60 min incubation: 81.8%
Dog PK (oral); 1.5 mpk
  F: 105.0%
Dog PK (oral); 4.5 mpk
  F: 88.8%
Dog PK (oral); 1.5 mg/kg, 1.5 mpk
  Cmax: 188 nM
  AUC(0-t): 5.28 µM·h
  half-life: 63.6 h
Dog PK (oral); 4.5 mg/kg, 4.5 mpk
  Cmax: 445 nM
  AUC(0-t): 13.4 µM·h
  half-life: 48.2 h
Mouse PK (oral); 10 mpk
  F: 82.5%
Mouse PK (oral); 30 mpk
  F: 93.8%
Mouse PK (oral); C57/B16, 10 mg/kg, 10 mpk
  Cmax: 1320 nM
Mouse PK (oral); C57/B16, 30 mg/kg, 30 mpk
  Cmax: 3430 nM
Mouse PK (oral); 10 mg/kg, 10 mpk
  AUC(0-t): 16.4 µM·h
  half-life: 11.1 h
Mouse PK (oral); 30 mg/kg, 30 mpk
  AUC(0-t): 56 µM·h
  half-life: 13.3 h
Liver S9 stability assay [6]; Dog liver S9
  half-life at 1 μM: > 2.42 h
  microsomal CLint at 1 μM: < 4.8 µL/min/mg
Liver S9 stability assay [6]; Dog liver S9, 1 μM, 5 mM GSH, 37° C.
  % Remaining after 60 min incubation: 112%
